Results: patent publication US5439902A, “14α, 16α-ethanoand 14α, 16α-etheno-estratrienes” (Schering Aktiengesellschaft, priority 1991, dated 1995)

Experiments:
vaginal epithelium = test: Allen-Doisy test (vaginal smears, threshold at which 50% of the animals reach stage 3); assay type: in vivo, ovariectomized rats; conditions: for Allen-Doisy Test p.o. [ED50] / Allen-Doisy Test s.c. [ED50]: ovariectomized rats, one-time administration d1, smears d3-d5
Protocol: In the Allen-Doisy test, an evaluation of vaginal smears in ovariectomized rats is performed on days 3-5 (d3-d5) after the one-time administration on day 1 (d1) of the test substance. The following cycle stages are distinguished:
1=diestrus (leukocytes and nucleated epithelial cells),
2=proestrus (nucleated epithelial cells),
3=estrus (denucleated horny plaques),
4=metestrus (denucleated horny plaques, leukocytes, epithelial cells).
After oral or subcutaneous administration, estrogenically active substances result in the proliferation of the vaginal epithelium and the hornification of superficial cell layers. As a threshold value, that amount of an estrogen is indicated in which 50% of the animals reach stage 3. Further, estrogens cause an increase of the uterus weight.

Estrogen-receptor = Estrogen-receptor test (KF); assay type: binding; conditions: estradiol = 1.0

Structure (SMILES) | Allen-Doisy Test p.o. [ED50] (vaginal epithelium) | threshold value (50% of the animals reach stage 3) (vaginal epithelium; s.c., rat, FIG. 1, threshold already exceeded after only 0.3 μg) [µg] | Allen-Doisy Test s.c. [ED50] (vaginal epithelium; s.c.) | Estrogen-receptor test (KF) (Estrogen-receptor)
C[C@]12CC[C@@H]3c4ccc(O)cc4CC[C@H]3[C@@]13CC[C@H](C3)[C@H]2O [14α,16α-ethano-estra-1,3,5(10)-triene-3,17α-diol] | 3-10 μg/animal/day | < 0.3 | 0.1-0.3 μg/animal/day | 0.5
C[C@]12CC[C@@H]3c4ccc(O)cc4CC[C@H]3[C@@]13CC[C@H](C3)[C@@H]2O [14α,16α-ethano-estra-1,3,5(10)-triene-3,17β-diol] | 1.0 μg/animal/day | – | 0.1-0.3 μg/animal/day | 1.0
C[C@]12CC[C@@H]3c4ccc(O)cc4CC[C@H]3[C@@]13C=C[C@H](C3)[C@H]2O [14α,16α-etheno-estra-1,3,5(10)-triene-3,17α-diol] | – | – | – | 1.5
C[C@]12CC[C@@H]3c4ccc(O)cc4CC[C@H]3[C@@H]1CC[C@H]2O [17α-Estradiol, reference compound] | – | – | – | 46.0
C[C@]12CC[C@@H]3c4ccc(O)cc4CC[C@H]3[C@@H]1CC[C@@H]2O [Estradiol, reference compound] | – | – | – | 1.0
